Among the data in PubChem BioAssay (NCI) are TGI and GI50 values, retold here.

Values joined by “and” are separate entries in the source; they are usually repeats but may differ in a detail not shown here. Equal entries are not always repeated.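 Tested at 5 concentrations; 48 h exposure; 96-well plates; endpoints linearly interpolated, else capped at highest concentration. Abbreviation: GI50, concentration required for 50% inhibition of growth. TGI: concentration producing complete growth inhibition.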

What all share (assay): NCI anticancer screen, dose series, 48 h
The subject of assay [1] is RPMI-8226 leukemia.
For assay [2], the system named is K-562 leukemia.
Assay [3] relates to 786-0 renal.
Assay [4] relates to DU-145 prostate.
The test system of assay [5] is HCT-15 colon.
For assay [6], the system named is NCI-H226 lung.
Assay [7] relates to SW-620 colon.
The test system of assay [8] is SNB-75 CNS.
For assay [9], the system named is SR leukemia.
For assay [10], the system named is OVCAR-4 ovarian.

For the compound `CC1OC(n2cc(F)c(=O)[nH]c2=O)CCC1O` (stereo not given), the TGI is > 100 µM in [1]; > 100 µM in [2]; > 100 µM in assay [3]; > 100000 nM in [4]; > 100 µM in [5]; > 100 µM in assay [6]. The TGI in assay [7], in assay [8], in assay [9] and in assay [10] was > 100 µM each time.
In the case of `O=C(CI)NC1Oc2ccccc2-c2oc(=O)c(-c3ccccc3)cc21` (stereo not given), the GI50 in [1] was 2080 nM; in assay [2] it was 1320 nM; in assay [3], 441 nM; in assay [4], 1570 nM; in assay [6], 3320 nM; in [8] it was 1540 nM. The GI50 in [9] was 357 nM. For the same compound, the TGI was 4.79 µM in assay [1]; 11.9 µM in assay [2]; 1.58 µM in assay [3]; 2980 nM in assay [4]; 29 µM in assay [6]; 2.94 µM in assay [8]. Moreover, in [9], the TGI was > 100 µM.
As for `N#C/C(=C1C=C/C(=N/O)C(Br)=C/1)c1ccccc1`, the GI50 in assay [1] was 360 nM; in assay [2] it was 878 nM; in [3], 3190 nM; in assay [4], 3240 nM; in [5], 2410 nM; in assay [6] it was 3590 nM. Besides, the GI50 in [7] was 637 nM; in assay [8], 3420 nM; in assay [9], 545 nM; in [10], 5.41 µM. The TGI in [1] was 11.5 µM; in [2], 12.6 µM; in [3], 14.7 µM; in [4], 9690 nM; in assay [5] it was > 100 µM; in assay [6], 11.6 µM. Further, the TGI came to 10.8 µM in assay [7], 22.6 µM in assay [8], 8.48 µM in [9] and 37.9 µM in assay [10].
For `Cc1cc2c(cc1C)[n+](=O)c(C(=O)CC(=O)C(=O)Nc1c(C(C)C)cccc1C(C)C)c(C)n2[O-]`, the TGI in assay [1], in assay [2], in [3], in assay [5], in [6] and in assay [7] was > 100 µM in each case. In addition, the TGI in assay [8], in [9] and in assay [10] was > 100 µM in each case.
Regarding `N#C/C(=C/c1ccsc1)C(=O)c1ccccc1`, the TGI in assay [1], in assay [2], in assay [3], in assay [5], in assay [6] and in assay [7] was > 100 µM in each case. Besides, the TGI in assay [8], in [9] and in [10] was > 100 µM throughout.
As to `COc1cc(C2c3cc4c(cc3C(NCC(O)CO)C3COC(=O)[C@H]23)OCO4)cc(OC)c1OC` (stereo not given in full), the TGI was > 100 µM in assay [1]; > 100 µM in [2]; > 100 µM in assay [3]; > 100 µM in assay [5]; 0.655 µM in [6]; > 100 µM in [7]. Moreover, the TGI in assay [8] and in assay [9] was > 100 µM throughout.
For the compound `COc1cccc(-c2cc(=O)c3cc(N(C)C)ccc3[nH]2)c1`, the GI50 was 9.37 nM and 4.04 nM in assay [2]; 36.8 nM and 9.6 nM in [3]; 34 nM and 7.3 nM in [4]; 17.3 nM and 3.82 nM in assay [7]; 27.1 nM and 8.69 nM in [8]; 4.95 nM and 2.24 nM in assay [9]. For the same compound, the TGI is 0.0887 µM in assay [2]; > 100 µM and 36.7 µM in assay [3]; 302 nM and 369 nM and 800 nM in assay [4]; > 100 µM in assay [7]; > 100 µM in assay [8]; 0.188 µM and 0.0233 µM in assay [9]. The TGI in [10] is > 100 µM.
`COc1ccc(CNc2cc(OC)c(OC)c(OC)c2)cc1`: the TGI in assay [1] was 83.1 µM; in assay [2], > 44.4 µM; in assay [3], > 100 µM; in assay [5], > 100 µM; in [6], > 62.1 µM; in assay [7] it was > 100 µM. Moreover, the TGI was 97.1 µM in [8], > 100 µM in [9] and 85.1 µM in assay [10].
For the compound `CCNCCNc1cc(-c2ccc(C(=O)OC)cc2)c(C#N)c2nc3ccccc3n12`, the GI50 in [1] is 1990 nM; in [2] it was 1230 nM; in assay [3] it was 1560 nM; in assay [4], 2650 nM; in assay [5] it was 1470 nM; in assay [6], 2020 nM. Moreover, the GI50 in [7] is 488 nM; in assay [8] it was 1530 nM; in [9], 240 nM. Further, the TGI in assay [1] is 5.3 µM; in [2] it was 3.2 µM; in assay [3], 3.46 µM; in [4], > 100000 nM; in assay [5], 4.65 µM; in assay [6], 8.39 µM. The TGI was determined as 2.67 µM in assay [7], 3.17 µM in assay [8] and 0.613 µM in assay [9].
As for `COc1ccc2cc1Oc1ccc(cc1)CC1c3cc(c(OC)cc3CCN1C)Oc1c3c(cc4c1C(C2)N(C)CC4)OCO3` (stereo not given), the TGI in assay [2] is 4.17 µM; in assay [3] it was 25.3 µM; in assay [5], 14.7 µM; in [6] it was 7.45 µM; in assay [7], 25.8 µM; in [8], 15.3 µM. For the same compound, the TGI in assay [9] is 28.2 µM; in assay [10], 12.7 µM.
With `N#CC1(Cc2ccc(N)cc2)c2ccccc2C=CN1C(=O)c1ccccc1` (stereo not given), the TGI in [1], in assay [2], in assay [3], in [6], in assay [7] and in assay [8] was > 100 µM each time. The TGI in assay [9] worked out at 94.3 µM.
Turning to `Cc1ccc(-c2c3c([nH]c(=O)c2C#N)-c2cc(F)ccc2OC3)cc1`, the GI50 was 28300 nM in assay [1]; 86400 nM in assay [2]; 64400 nM in [3]; > 100000 nM in [4]; 91000 nM in [5]; > 100000 nM in assay [7]. Further, the GI50 in assay [8] is > 100000 nM; in assay [9], > 100000 nM; in assay [10], > 100 µM. The TGI in assay [1] is > 100 µM; in assay [2], > 100 µM; in [3], > 100 µM; in assay [4], > 100000 nM; in [5] it was > 100 µM; in assay [7] it was > 100 µM. The TGI in [8], in assay [9] and in assay [10] was > 100 µM in each case.
As for `O=C1c2cccc(NCCN=Cc3cc(O)ccc3O)c2C(=O)c2c(NCCN=Cc3cc(O)ccc3O)cccc21`, the GI50 in assay [2] was 1450 nM; in assay [3], 1880 nM; in assay [4], 1390 nM; in [5] it was 2840 nM; in assay [6] it was 1210 nM; in [9] it was 601 nM. Moreover, the GI50 in assay [10] is 0.573 µM. The TGI turned out to be 3.9 µM in assay [2]; 4.69 µM in [3]; 5430 nM in assay [4]; 10.5 µM in assay [5]; 3.62 µM in assay [6]; 3.1 µM in [9]. The TGI in assay [10] was 2.64 µM.
Consider `Cc1nc2c(nc1Cl)nc(Oc1ccc(Cl)cc1)c1ccccc12`, for which the TGI in assay [1] is > 100 µM; in assay [2], > 100 µM; in [3] it was 38.3 µM; in assay [5] it was > 100 µM; in [6] it was 79.9 µM; in [7], > 100 µM. The TGI in assay [8], in assay [9] and in [10] was > 100 µM in each case.
On to `COc1ccc2[nH]c3c(C)c4c(c(C)c3c2c1)CN(C)CC4`, for which the TGI was 93.3 µM in assay [1]; 25.8 µM in [2]; 27.8 µM in [3]; 35.3 µM in [5]; 30.8 µM in assay [6]; 15.5 µM in [7]. Besides, the TGI in [8] stood at 36.4 µM; in [9], 83.8 µM; in assay [10], 34.8 µM.
In the case of `CC1OC(O[C@H]2C[C@@H](O)[C@]3(CO)[C@H]4[C@H](O)C[C@]5(C)[C@@H](C6=CC(=O)OC6)CC[C@]5(O)[C@@H]4CC[C@]3(O)C2)C(O)C(O)C1O` (stereo not given in full), the GI50 in assay [1] was 26500 nM; in assay [3] it was 19900 nM; in assay [4] it was 19300 nM; in [5], 17300 nM; in [6], 22700 nM; in assay [7] it was 22500 nM. Further, the GI50 in assay [9] was 10200 nM; in assay [10], 17.3 µM. The TGI in assay [1] is 54.5 µM; in assay [3], 36.3 µM; in assay [4], 34000 nM; in [5] it was 31.9 µM; in assay [6], 52 µM; in [7] it was 48.7 µM. Moreover, the results for the TGI in [9] and in assay [10] were 38 µM and 33.1 µM, respectively.
Consider `Nc1ccn(C2O[C@H](CO)[C@@H](O)[C@@H]2O)c(=O)n1` (stereo not given in full), for which the TGI was > 100 µM in assay [3]; > 100000 nM in assay [4]; > 100 µM in [5]; > 100 µM in assay [6]; > 100 µM in [7]; > 100 µM in [8]. In addition, the TGI in [9] and in assay [10] was > 100 µM in each case. Also, the values for the GI50 in [8] and in [9] were 41500 nM and > 100000 nM, respectively.
On to `CN1CCN(Cc2ccc(NC(=O)c3cncc(C#Cc4cnc(N)c5ccc(C#N)cc45)c3)cc2C(F)(F)F)CC1`, for which the GI50 in assay [1] was 77.5 nM; in [3], 111 nM; in [4] it was 33.2 nM; in assay [5] it was 122 nM; in [6], 69.8 nM; in assay [7] it was 59 nM. Besides, the values for the GI50 in assay [8] and in assay [9] were 123 nM and 46.4 nM, respectively. The TGI in assay [1] worked out at 1.25 µM; in assay [3], 1.01 µM; in assay [4], 1470 nM; in assay [5] it was 0.787 µM; in assay [6], 0.864 µM; in [7], 1.45 µM. Moreover, the TGI in [8] worked out at 0.876 µM; in assay [9] it was 2.4 µM.
For `O=C(O)Cn1ccc(=O)c2ccc([N+](=O)[O-])cc21`, the TGI is > 100 µM in assay [2]; > 100 µM in [3]; > 100000 nM in [4]; > 100 µM in assay [5]; > 100 µM in assay [6]; > 100 µM in assay [7]. Also, the TGI in assay [8] and in [9] was > 100 µM in each case.
In the case of `COc1cc(/C=C/c2cc(/C=C/c3ccc(O)c(OC)c3)n(-c3ccccc3)n2)ccc1O`, the GI50 in [3] was 582 nM; in [4], 399 nM; in assay [6], 382 nM; in assay [9], 35.3 nM; in [10] it was 0.536 µM. For the same compound, the TGI was 1.83 µM in assay [3]; 1400 nM in [4]; 1.83 µM in assay [6]; > 100 µM in assay [9]; 4.95 µM in assay [10].
`COc1ccc2ccc3c(c2c1)CN1CCc2cc(OC)c(OC)cc2C1C3` (stereo not given): the TGI in assay [1], in assay [2], in assay [3], in assay [5], in assay [6] and in assay [7] was > 100 µM in each case. In addition, the TGI in assay [8] is 96.8 µM; in [9] it was > 100 µM; in assay [10] it was > 100 µM.
In the case of `COC(=O)CC(=O)C[P+](c1ccccc1)(c1ccccc1)c1ccccc1`, the TGI in assay [1] is > 218 µM; in [2], > 218 µM; in [3], > 218 µM; in assay [5], 215 µM; in assay [6] it was > 218 µM; in assay [7] it was > 218 µM. Moreover, the TGI in [9] was > 218 µM.
As for `Cc1ccc(C)c(NC(=O)CC/C(=N\NC(=O)C(=O)NN)C(C)C(=O)c2ccc(O)cc2)c1` (stereo not given), the TGI in assay [1], in assay [2], in [3], in assay [5], in [6] and in assay [7] was > 100 µM in each case. Moreover, the TGI in assay [8], in assay [9] and in assay [10] was > 100 µM throughout.
